Source: patent publication US20160115540A1, “PRODRUGS AND DRUGS” (Biogen MA Inc., priority 2013, published 2016)
Counter-ions that a name gives are not always drawn.

Test system: liver
Test: Transcriptional profiling on Affymetrix GeneChips, single dose, naïve mice: liver
Format: in vivo, C57BL/6 mice
Conditions: for Number of differentially expressed genes identified: Liver: Naïve, Single Dose, 100 mpk, vs Vehicle
Experimental: Treated mice were sacrificed at 2, 7, or 12 hours. Tissues (liver, spleen, kidney, jejunum, cortex, hippocampus, striatum and whole blood) were collected and analyzed by transcriptional profiling on mouse Affymetrix GeneChips.
Tissues (liver, spleen, kidney, jejunum, cortex, hippocampus, striatum and whole blood) were collected and analyzed by transcriptional profiling on mouse Affymetrix GeneChips.
Animals were exposed to CO2 and whole blood collected via cardiac puncture. Two 100 μl aliquots of whole blood were collected in 1.5 mL microcentrifuge tubes and snap frozen in liquid nitrogen. Peripheral (liver, spleen, kidney and jejunum) and CNS brain (cerebellum, hippocampus, striatum and cortex) tissues were harvested and snap frozen in liquid nitrogen, with special care taken to collect tissues of similar size and from the same location. All samples were stored at −80° C. until RNA extraction was conducted.
For RNA preparation, frozen tissues were placed in 2 mL RNAse-free 96-well blocks with 1.5 mL QIAzol Lysis Reagent (QIAgen) and a 3.2 mm stainless steel bead (BioSpec Products, Bartlesville, Okla.). Tissues were disrupted for four cycles of 45 seconds in a Mini-Beadbeater (Biospec Products). RNA was extracted in chloroform and the aqueous phase was mixed with an equal volume of 70% ethanol. Extracted RNA was applied to RNeasy 96 plates and purified by the spin method according to the manufacturer's protocol (RNeasy 96 Universal Tissue Protocol, QIAgen, Hilden Germany).
Automated sample amplifications and biotin labelings were carried out using the NuGEN Ovation RNA Amplification system V2 (Cat #3100), Ovation WB reagent (Cat #1300) and Encore Biotin module (Cat #4200) (NuGEN Technologies, Inc, San Carlos, Calif.) according to manufacturer's recommendations using an Arrayplex automated liquid handler (Beckman Coulter, Indianapolis, Ind.). Two micrograms of biotin labeled sscDNA probe were hybridized to Affymetrix GeneChip Affymetrix HT_MG-430_PM plate arrays with modified conditions as described in Allaire et al. Washing and staining of the hybridized arrays were completed as described in the GeneChip Expression analysis technical manual for HT plate arrays using the Genechip® Array Station (Affymetrix, Santa Clara, Calif.) with modifications as described in Allaire et al. The processed GeneChip® plate arrays were scanned using GeneTitan scanner (Affymetrix, Santa Clara, Calif.).
Affymetrix scans were subject to quality control (QC) measures. These tests included a visual inspection of the distribution of raw signal intensities and an assessment of RNA degradation, relative log expression (RLE), and normalized unsealed standard error (NUSE). All sample scans that passed these QC metrics were included in the analysis.
All CEL files were subjected to GC-content-based Robust Multi-array Average (GCRMA) normalization (version 2.20.0) (Irizarry R A, et al. Nucleic Acids Res 2003; 31:e15; Li C, et al. Genome Biol 2001; 2:[…]0032). Expression levels were log (base 2) transformed.
All calculations and analyses were carried out using R (version 2.11.1) and Bioconductor computational tools (Gentleman R. Springer Science+Business Media 2005).

[1] = liver, 100 mg/kg, 2 hr, vs matched vehicle controls

## COC(=O)/C=C/C(=O)O [MMF, monomethyl fumarate]
LIVER, 100MMF-vs-Veh, 2 h
  FC 1437867_PM_at (no gene symbol): 1.50
  FC 1444516_PM_at (no gene symbol): 2.19
  FC 1447411_PM_at (no gene symbol): 2.81
  FC 9130221J17Rik (1443159_PM_at): 1.57
  FC Abcc1 (1452233_PM_at): 1.86
  FC Akr1b8 (1448894_PM_at): 2.27
  FC Caprin1 (1448348_PM_at): −1.56
  FC Clec4d (1420804_PM_s_at): 2.05
  FC Csnk2a1 (1419038_PM_a_at): −1.62
  FC Figf (1438953_PM_at): 2.25
  FC Figf (1438954_PM_x_at): 1.79
  FC Fxr1 (1452247_PM_at): −1.53
  FC Gclc (1424296_PM_at): 1.72
  FC Gclc (1455959_PM_s_at): 1.64
  FC Hmox1 1448239_PM_at: 2.41
  FC Meis2 (1440091_PM_at): −1.67
  FC Pgd (1436771_PM_x_at): 1.61
  FC Pgd (1437380_PM_x_at): 1.65
  FC Ppfibp2 (1417801_PM_a_at): 2.55
  FC Prpf38b (1455016_PM_at): −1.53
  FC Srxn1 (1419942_PM_at): 1.68
  FC Srxn1 (1426875_PM_s_at): 1.63
  FC Srxn1 (1451680_PM_at): 1.55
LIVER, 100MMF-vs-Veh, 7 h
  FC 2010003K11Rik (1424626_PM_at): 2.20
  FC 4930588G05Rik (1430175_PM_at): −1.76
  FC Akr1b8 (1448894_PM_at): 1.75
  FC Bmp6 (1450759_PM_at): 1.65
  FC Cda (1427357_PM_at): 1.92
  FC Clec4n (1419627_PM_s_at): 2.40
  FC Erc2 (1434582_PM_at): −1.95
  FC Fzd8 (1445815_PM_at): −1.81
  FC G6pdx (1448354_PM_at): 1.61
  FC Marco (1449498_PM_at): 2.44
  FC Nqo1 (1423627_PM_at): 2.20
  FC Pir (1429001_PM_at): 1.50
  FC Srxn1 (1419942_PM_at): 1.52
  FC Srxn1 (1426875_PM_s_at): 1.53
  FC Srxn1 (1451680_PM_at): 1.58
LIVER, 100MMF-vs-Veh, 12 h
  FC 1810055G02Rik (1425921_PM_a_at): 1.86
  FC 4933433P14Rik (1431334_PM_a_at): 1.81
  FC Ablim1 (1453103_PM_at): −1.51
  FC Car3 (1460256_PM_at): −1.57
  FC Clmn (1439117_PM_at): −1.54
  FC Ctla2a (1448471_PM_a_at): 1.63
  FC Dnajc12 (1417441_PM_at): 2.53
  FC Fndc3b (1433833_PM_at): 1.66
  FC Gadd45b (1450971_PM_at): 1.50
  FC Gm3579 (1431214_PM_at): 2.74
  FC Hyou1 (1423290_PM_at): 1.82
  FC Hyou1 (1423291_PM_s_at): 1.52
  FC Lrrc59 (1416235_PM_at): 1.65
  FC Nme6 (1448574_PM_at): 1.57
  FC Ppapdc1b (1428154_PM_s_at): 1.87
  FC Ppm1k 1441988_PM_at: −1.56
Liver
  Number of genes, DMF Only / MMF Only: 34
2 h after last dosing
  Number of differentially expressed genes identified: Liver: 23
7 h after last dosing
  Number of differentially expressed genes identified: Liver: 15
12 h after last dosing
  Number of differentially expressed genes identified: Liver: 16
[1]
  Murine Liver DEGs: Abcc1 (1452233_PM_at): 1.86
  Murine Liver DEGs: Akr1b8 (1448894_PM_at): 2.27
  Murine Liver DEGs: Ampd3 (1422573_PM_at): 1.70
  Murine Liver DEGs: Caprin1 (1448348_PM_at): −1.56
  Murine Liver DEGs: Clec4d (1420804_PM_s_at): 2.05
  Murine Liver DEGs: Cmah (1447019_PM_at): −1.55
  Murine Liver DEGs: Csnk2a1 (1419038_PM_a_at): −1.62
  Murine Liver DEGs: Figf (1438953_PM_at): 2.25
  Murine Liver DEGs: Fxr1 (1452247_PM_at): −1.53
  Murine Liver DEGs: Gclc (1424296_PM_at): 1.72
  Murine Liver DEGs: Hmox1 (1448239_PM_at): 2.41
  Murine Liver DEGs: Meis2 (1440091_PM_at): −1.67
  Murine Liver DEGs: Mkln1 (1416734_PM_at): −1.69
  Murine Liver DEGs: Pgd (1436771_PM_x_at): 1.61
  Murine Liver DEGs: Ppfibp2 (1417801_PM_a_at): 2.55
  Murine Liver DEGs: Prpf38b (1455016_PM_at): −1.53
  Murine Liver DEGs: Ptprb (1453908_PM_at): −1.76
  Murine Liver DEGs: Ptprg (1456070_PM_at): −1.85
